Assay results: patent US20080026084A1, “Method and composition for management of weight and blood sugar” (PhytoMyco Research Corporation, priority 2006, published 2008)

test system: 3T3-L1 cells; assay: assays of this invention (lipolysis, inhibition of adipocyte differentiation, de-differentiation, leptin secretion); format: cell-based, mouse; settings: not given
From the text: Method i): Oil Red O staining which stains fat droplets in fat cells and thereby gives a directly related indication of the level of adipogenesis as a function of the amount of staining of fat droplets.
Method ii): GPDH or […] is a key enzyme involved in the pathway of triglyceride synthesis in the glycolytic pathway. Adipocytes express highlevels of this enzyme. Therefore, a reduction in GPDH levels is indicative of inhibition of adipogenesis (prevention of fat accumulation in cells).
Method iii): Assay to observe de-differentiation of adipocytes to preadipocytes can be used to detect compounds and mixtures of compounds that are capable of breaking down existing stores of body fat. This assay identifies compounds and mixtures of compounds than induce the […] of adipocytes to preadipocytes and is quantitatively assessed by developing a color response using Oil Red O staining or by measuring GPDH levels as in methods i) and ii), respectively. Such compounds and mixtures of compounds as extracts of plants can have a direct effect on reducing weight because they cause fat cells to become non-fat cells (preadipocytes).
Method iv) Leptin Secretion assay can be used to determine the presence of leptin which is a product of the Ob gene. It is a hormone secreted by mature adipocytes that plays a role in regulating body fat storage. High levels of leptin circulating in the blood indicate hormonally that energy stores are high, and therefore mitigate the need for further food intake. Compounds or mixtures of compounds of this invention that increase leptin secretion can be administered orally to an overweight or obese person to reduce appetite in that person, and therefore to reduce food intake by that person.
In this assay, pre-adipocyte cells are seeded in 96-well plates and are induced to convert to adipocytes over the course of a 10-15 day treatment with […] reagents. After cells have converted to adipocytes, the cells are starved, and then subsequently treated with or exposed to test compounds or mixtures of compounds or extracts of plants or fractionated extracts of plants. The adipocytes are treated with test compounds in the presence of a surrounding cell medium. Over the course of 1 to 3 hours after exposure to the test compounds or mixture of compounds, the amount of glycerol present in the cell medium is measured. Glycerol and fatty acids are hydrolysis products of triglycerides, and glycerol is released from cells after enzymatic hydrolysis or breakdown of lipids. Results are expressed as a percentage of the amount of glycerol present detected in a reference assay comprising an untreated control. Untreated controls are cells that are treated with vehicle only (such as 100% DMSO).
Inhibition of adipocyte differentiation is assayed by measuring the levels of the enzyme glycerol-3-phosphate dehydrogenase (GPDH). GPDH is involved in the pathway of triglyceride synthesis in the glycolytic pathway. Colorimetric assays can be used to screen for compounds and mixtures of compounds than inhibit the differentiation of preadipocytes to adipocytes. Oil Red O is a colorimetric assay that can be used to stain lipids in adipocytes.
In this assay pre-adipocyte cells require 10 to 15 days to differentiate into adipocytes. […] After cells have undergone the 10-15 days required to differentiate, cells are assessed for GPDH activity.
Results are expressed as a percentage of the untreated control average. […]

Row | Compound | activity in the assays of this invention
1 | Cephalandrine A | active
2 | Cephalandrol | active
3 | CC(=O)OC(C)(C)/C=C/C(=O)[C@](C)(O)[C@H]1[C@H](O)C[C@@]2(C)[C@@H]3CC=C4[C@H](C[C@H](O)C(=O)C4(C)C)[C@]3(C)C(=O)C[C@]12C [cucurbitacin B] | active
4 | Cephalandrine B | active
5 | CC(C)(O)/C=C/C(=O)[C@](C)(O)[C@H]1[C@H](O)C[C@@]2(C)[C@@H]3CC=C4[C@@H](C[C@H](O)C(=O)C4(C)C)[C@]3(C)C(=O)C[C@]12C [cucurbitacin D] | active

test system: not given; assay: not given; settings: in vivo; cited from earlier work

Row | Compound | decrease of the amount of fat absorbed from the diet
6 | CCCCCCCCCCC[C@@H](C[C@@H]1OC(=O)[C@H]1CCCCCC)OC(=O)[C@H](CC(C)C)NC=O [Orlistat] | about 30%
